From ChEMBL document CHEMBL1147199, “Exploration of the correlation between the structure, hemolytic activity, and cytotoxicity of steroid saponins” (Bioorg Med Chem, 2007)

Columns and labels:
Assay type in all cases: cell-based, Erythrocyte; call rule not given here
[1] = Cytotoxicity against human erythrocytes assessed as hemolytic activity at 50 ug/ml after 60 mins; details: read-out: Activity
[2] = Cytotoxicity against human erythrocytes assessed as hemolytic activity after 60 mins; details: read-out: HD50
[3] = Cytotoxicity against human erythrocytes assessed as hemolytic activity at 100 ug/ml after 60 mins; details: for Activity: erythrocyte, 1 h
[4] = Cytotoxicity against human erythrocytes assessed as hemolytic activity at 40 ug/ml after 60 mins; details: read-out: Activity
[5] = Cytotoxicity against human erythrocytes assessed as hemolytic activity at 75 ug/ml after 60 mins
[6] = Cytotoxicity against human erythrocytes assessed as hemolytic activity at 30 ug/ml after 60 mins; details: read-out: Activity

CC(=O)O[C@@H]1[C@@H](O)[C@@H](O)[C@H](OC[C@H]2O[C@@H](O[C@H]3CC[C@@]4(C)C(=CC[C@H]5[C@@H]6C[C@@H]7O[C@]8(CC[C@@H](C)CO8)[C@@H](C)[C@@H]7[C@@]6(C)CC[C@@H]54)C3)[C@H](O)[C@@H](O)[C@@H]2O)O[C@H]1C
hemolysis at 1 h, 50 ug/ml [1]: 12%
HC50 at 1 h [2]: > 50 µM

CCCCCCCCCCCCCCCC(=O)O[C@H]1C[C@@H]2[C@H](CC[C@]3(C)[C@@H]4[C@H](C[C@@H]23)O[C@]2(CC[C@@H](C)CO2)[C@H]4C)[C@@]2(C)C[C@@H](O)[C@H](O[C@@H]3O[C@H](CO)[C@@H](O[C@H]4O[C@H](C)[C@@H](O)[C@H](O)[C@@H]4O)[C@H](O)[C@H]3O[C@H]3O[C@H](C)[C@@H](O)[C@H](O)[C@@H]3O)C[C@H]12
Activity [3]: Not Active
HC50 at 1 h [2]: > 100 µM

C[C@@H]1CC[C@@]2(OC1)O[C@H]1C[C@H]3[C@@H]4CC=C5C[C@@H](O[C@@H]6O[C@H](CO)[C@@H](O)[C@H](O[C@@H]7O[C@@H](C)[C@H](O)[C@@H](O)[C@H]7O)[C@H]6O)CC[C@]5(C)[C@H]4CC[C@]3(C)[C@H]1[C@@H]2C [POLYPHILLIN C]
hemolysis at 1 h, 40 ug/ml [4]: 15%
HC50 at 1 h [2]: > 40 µM

CC(=O)OC[C@H]1O[C@@H](O[C@H]2CC[C@@]3(C)C(=CC[C@H]4[C@@H]5C[C@@H]6O[C@]7(CC[C@@H](C)CO7)[C@@H](C)[C@@H]6[C@@]5(C)CC[C@@H]43)C2)[C@H](O[C@@H]2O[C@@H](C)[C@H](OC(C)=O)[C@@H](O)[C@H]2O)[C@@H](O)[C@@H]1O
hemolysis % ([5]; erythrocyte): 8%
HC50 at 1 h [2]: > 75 µM

CO[C@]1(CCC(C)CS[C@@H]2O[C@H](CO)[C@@H](O)[C@H](O)[C@H]2O)O[C@H]2C[C@H]3[C@@H]4CC=C5C[C@@H](O[C@@H]6O[C@H](CO)[C@@H](O[C@H]7O[C@H](C)[C@@H](O)[C@H](O)[C@@H]7O)[C@H](O)[C@H]6O[C@H]6O[C@H](C)[C@@H](O)[C@H](O)[C@@H]6O)[C@H](O)C[C@]5(C)[C@H]4CC[C@]3(C)[C@H]2[C@@H]1C (stereo not given in full)
Activity [3]: Not Active
HC50 at 1 h [2]: > 100 µM

CC(=O)O[C@H]1C[C@@H]2[C@H](CC[C@]3(C)[C@@H]4[C@H](C[C@@H]23)O[C@]2(CC[C@@H](C)CO2)[C@H]4C)[C@@]2(C)C[C@@H](O)[C@H](O[C@@H]3O[C@H](CO)[C@@H](O[C@H]4O[C@H](C)[C@@H](O)[C@H](O)[C@@H]4O)[C@H](O)[C@H]3O[C@H]3O[C@H](C)[C@@H](O)[C@H](O)[C@@H]3O)C[C@H]12
hemolysis at 1 h, 30 ug/ml [6]: 34%
HC50 at 1 h [2]: > 30 µM

CO[C@]1(CCC(C)CO[C@@H]2O[C@H](CO)[C@@H](O)[C@H](O)[C@H]2O)O[C@H]2C[C@H]3[C@@H]4CC=C5C[C@@H](O[C@@H]6O[C@H](CO)[C@@H](O[C@H]7O[C@H](C)[C@@H](O)[C@H](O)[C@@H]7O)[C@H](O)[C@H]6O[C@H]6O[C@H](C)[C@@H](O)[C@H](O)[C@@H]6O)[C@H](O)C[C@]5(C)[C@H]4CC[C@]3(C)[C@H]2[C@@H]1C (stereo not given in full)
Activity [3]: Not Active
HC50 at 1 h [2]: > 100 µM

CCCCCCCCCCCC(=O)O[C@H]1C[C@@H]2[C@H](CC[C@]3(C)[C@@H]4[C@H](C[C@@H]23)O[C@]2(CC[C@@H](C)CO2)[C@H]4C)[C@@]2(C)C[C@@H](O)[C@H](O[C@@H]3O[C@H](CO)[C@@H](O[C@H]4O[C@H](C)[C@@H](O)[C@H](O)[C@@H]4O)[C@H](O)[C@H]3O[C@H]3O[C@H](C)[C@@H](O)[C@H](O)[C@@H]3O)C[C@H]12
hemolysis at 1 h, 100 ug/ml ([3]; human erythrocytes, read-out: Activity): 8.5%
HC50 at 1 h [2]: > 100 µM

C[C@@H]1CC[C@@]2(OC1)O[C@H]1C[C@H]3[C@@H]4CC=C5C[C@@H](O[C@@H]6O[C@H](CO)[C@@H](O)[C@H](O)[C@H]6O)CC[C@]5(C)[C@H]4CC[C@]3(C)[C@H]1[C@@H]2C [DISOGLUSIDE]
Activity [3]: Not Active
HC50 at 1 h [2]: > 100 µM

CC(=O)OC[C@H]1O[C@@H](O[C@H]2CC[C@@]3(C)C(=CC[C@H]4[C@@H]5C[C@@H]6O[C@]7(CC[C@@H](C)CO7)[C@@H](C)[C@@H]6[C@@]5(C)CC[C@@H]43)C2)[C@H](O[C@@H]2O[C@@H](C)[C@H](O)[C@@H](O)[C@H]2O)[C@@H](O)[C@@H]1O
hemolysis at 1 h, 75 ug/ml ([5]; human, human erythrocytes, read-out: Activity): 29%
HC50 at 1 h [2]: > 75 µM

C[C@@H]1CC[C@@]2(OC1)O[C@H]1C[C@H]3[C@@H]4CC=C5C[C@@H](O[C@@H]6O[C@H](CO)[C@@H](O)[C@H](O)[C@H]6O[C@@H]6O[C@@H](C)[C@H](O)[C@@H](O)[C@H]6O)CC[C@]5(C)[C@H]4CC[C@]3(C)[C@H]1[C@@H]2C [OPHIOPOGONIN C]
HC50 at 1 h [2]: 21.6 µM

C[C@@H]1CC[C@@]2(OC1)O[C@H]1C[C@H]3[C@@H]4CC=C5C[C@@H](O[C@@H]6O[C@H](CO)[C@@H](O[C@@H]7O[C@@H](C)[C@H](O)[C@@H](O)[C@H]7O)[C@H](O)[C@H]6O[C@@H]6O[C@@H](C)[C@H](O)[C@@H](O)[C@H]6O)CC[C@]5(C)[C@H]4CC[C@]3(C)[C@H]1[C@@H]2C [DIOSCIN]
HC50 at 1 h [2]: 6.8 µM

C[C@@H]1CC[C@@]2(OC1)O[C@H]1C[C@H]3[C@@H]4CC=C5C[C@@H](O[C@@H]6O[C@H](CO)[C@@H](O)[C@H](O[C@@H]7O[C@@H](C)[C@H](O)[C@@H](O)[C@H]7O)[C@H]6O[C@H]6O[C@H](C)[C@@H](O)[C@H](O)[C@@H]6O)CC[C@]5(C)[C@H]4CC[C@]3(C)[C@H]1[C@@H]2C [TACCAOSIDE]
HC50 at 1 h [2]: 6.8 µM

CC(=O)O[C@@H]1[C@@H](O)[C@@H](O)[C@H](O[C@H]2[C@H](O)[C@@H](O)[C@H](O[C@H]3CC[C@@]4(C)C(=CC[C@H]5[C@@H]6C[C@@H]7O[C@]8(CC[C@@H](C)CO8)[C@@H](C)[C@@H]7[C@@]6(C)CC[C@@H]54)C3)O[C@@H]2CO)O[C@H]1C
HC50 at 1 h [2]: 29.3 µM

C[C@@H]1CC[C@@]2(OC1)O[C@H]1C[C@H]3[C@@H]4CC=C5C[C@@H](O[C@@H]6O[C@H](CO)[C@@H](O[C@H]7O[C@H](C)[C@@H](OCCN=[N+]=[N-])[C@H](O)[C@@H]7O)[C@H](O)[C@H]6O[C@H]6O[C@H](C)[C@@H](O)[C@H](O)[C@@H]6O)CC[C@]5(C)[C@H]4CC[C@]3(C)[C@H]1[C@@H]2C
HC50 at 1 h [2]: 9.7 µM
